{
  "source": "patent US20220125837A1",
  "about": "“METHODS FOR CONTROLLED ELIMINATION OF THERAPEUTIC CELLS” (Bellicum Pharmaceuticals, Inc., priority 2014, published 2022)",
  "molecules": {"B1": {"name": "F404Y: chimeric modified Caspase-9 polypeptide (protein)", "chain": "VDGFGDVGALESLRGNADLAYILSMEPCGHCLIINNVNFCRESGLRTRTGSNIDCEKLRRRFSSLHFMVEVKGDLTAKKMVLALLELARQDHGALDCCVVVILSHGCQASHLQFPGAVYGTDGCPVSVEKIVNIFNGTSCPSLGGKPKLFFIQACGGEQKDHGFEVASTSPEDESPGSNPEPDATPFQEGLRTFDQLDAISSLPTPSDIFVSYSTFPGFVSWRDPKSGSWYVETLDDIFEQWAHSEDLQSLLLRVANAVSVKGIYKQMPGCYNFLRKKLFFKTSASRA"}},
  "key": {"293 cells": {"tested_on": "293 cells", "assay": "SRα-SEAP assay in 293 cells with FRBl2-tagged CAR and iCaspase-9: rapamycin or rimiducid", "type": "cell-based, human", "settings": "overnight; at much lower levels of drug", "method": "Two tandem FRB, domains were fused to either either a 1st generation Her2-CAR or to a 1st generation CD19-CAR co-expressing inducibleiCaspase-9. 293 cells were transiently transfected with a constitutive reporter plasmid, SRα-SEAP, along with normalized levels of expression plasmids encoding Her2-CAR-FRBl2, iCaspase-9, Her2-CAR-FRBl2+iCasp9, iC9-CAR(19).FRBl2 (coexpressing both CD19-CAR-FRBl2 and iCaspase9), or control vector. […] After overnight incubation with drugs, SEAP activity was determined. […] This dose-dependent decrease required the presence of both the FRB-tagged CAR and the FKBP12-tagged Caspase-9. […] Moreover, on- or off-target-mediated CAR clustering should increase the sensitivity of killing primarily at the site of scFv engagement.\n24 hours following transfection (4.1), 293T cells are split to 96-well plates and incubated with dilutions of dimerizing drugs. Briefly, 100 μL media is added to each well of a 96-well flat-bottom plate. Drugs are diluted in tubes to a concentration 4× the top concentration in the gradient to be place on the plate. […]\n24 hours after drug stimulation, 96-well plates are wrapped to prevent evaporation and incubated at 65° C. for 2 hours to inactivate endogenous and serum phosphatases while the heat-stable SeAP reporter remains (3, 12, 14). […] Phosphatase activity is measured by fluorescence with excitation at 355 nm and emission at 460 nm. […]"}, "cells": {"tested_on": "cells", "assay": "AP1903 needed in vitro for effective signaling of cells", "type": "cell-based", "method": "This equates to 16-160 μg/L or ˜0.016-1.6 mg/kg (1.6-160 μg/kg)."}, "[1]": {"settings": "cited from earlier work"}, "CD3+ΔCD19+ cells": {"tested_on": "CD3+ΔCD19+ cells", "assay": "CASPALLO phase I clinical trial: AP1903 in patients with GvHD after iCasp9 T cells", "type": "in vivo, human", "method": "Prior to administration, the calculated dose was diluted to 100 mL in 0.9% normal saline for infusion."}, "human CD3+CD19+ T cells": {"tested_on": "human CD3+CD19+ T cells", "assay": "AP1903 dose-dependent elimination in vivo of iCasp9-transduced T cells", "set-up": "species or system immune deficient mice (NSG)", "settings": "mouse", "method": "The Caspase-9 polypeptide has a dose-response curve in vivo, which could be used to eliminate a variable fraction of T cells expressing the Caspase-9 polypeptide.\nT cells were transduced with SFG-iCasp9-D330E-2A-ΔCD19 retrovirus and injected i.v. into immune deficient mice (NSG). […] After an additional 24 hours, mice were sacrificed and lymphocytes from the spleen (A) were isolated and analyzed by flow cytometry for the frequency of human CD3+CD19+ T cells."}, "[2]": {"biological_target": "wt FRB (K2095 T2098 W2101) (Homo sapiens, UniProt P42345+P62942)", "sequence (P62942 2-108)": "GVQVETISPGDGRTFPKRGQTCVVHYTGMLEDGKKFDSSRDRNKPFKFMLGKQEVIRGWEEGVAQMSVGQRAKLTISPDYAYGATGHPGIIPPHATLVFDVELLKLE", "sequence (P42345 2012-2144)": "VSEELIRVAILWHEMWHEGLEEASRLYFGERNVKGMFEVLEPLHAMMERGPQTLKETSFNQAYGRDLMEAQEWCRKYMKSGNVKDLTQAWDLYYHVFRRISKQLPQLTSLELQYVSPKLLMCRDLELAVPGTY", "settings": "cited from earlier work"}, "FRB-PLF": {"biological_target": "FRB-PLF (Homo sapiens, UniProt P42345+P62942, K2095P/T2098L/W2101F)", "sequence (P42345 2012-2144 K2095P/T2098L/W2101F)": "as the sequence (P42345 2012-2144) above, with K84P, T87L, W90F counted along it", "sequence (P62942 2-108)": "as the sequence (P62942 2-108) above", "settings": "cited from earlier work"}, "FRB-KTF": {"biological_target": "FRB-KTF (Homo sapiens, UniProt P42345+P62942, W2101F)", "sequence (P42345 2012-2144 W2101F)": "as the sequence (P42345 2012-2144) above, with W90F counted along it", "sequence (P62942 2-108)": "as the sequence (P62942 2-108) above", "settings": "cited from earlier work"}, "primary T cells": {"tested_on": "primary T cells", "assay": "AP1903-dependent cytotoxicity in primary T cells transduced with caspase variants", "type": "cell-based, human", "settings": "AP1903 at Day 0 and day 4", "method": "The effects of various caspase polypeptides at mostly single copy in primary T cells was assayed. This may reflect more accurately how these suicide genes will be used therapeutically.\nPrimary T cells from healthy donors (n=6) were transduced with retrovirus encoding mutant or wild-type iCasp9 or iCasp9-D330A, and the ΔCD19 cell surface marker. Following transduction, iCasp9-transduced T cells were purified using CD19-microbeads and a magnetic column."}},
  "note": "Read-outs that look alike come from different tables or passages of the source.",
  "data": [
    {"molecule": "CC[C@H](C(=O)N1CCCC[C@H]1C(=O)O[C@H](CCc1ccc(OC)c(OC)c1)c1cccc(OCC(=O)NCCNC(=O)COc2cccc([C@@H](CCc3ccc(OC)c(OC)c3)OC(=O)[C@@H]3CCCCN3C(=O)[C@@H](CC)c3cc(OC)c(OC)c(OC)c3)c2)c1)c1cc(OC)c(OC)c(OC)c1", "note": "(relative stereo) [AP1903, 2-Piperidinecarboxylic acid, 1-[(2S)-1-oxo-2-(3,4,5-trimethoxyphenyl)butyl]-, 1,2-ethanediylbis[imino(2-oxo-2,1-ethanediyl)oxy-3,1-phenylene[(1R)-3-(3,4-dimethoxyphenyl)propylidene]] ester, [2S-[1(R*),2R*[S*[S*[1(R*),2R*]]]]]-(9Cl)]", "values": [
      {"measurement": "SEAP activity, % of normal levels", "setting": "293 cells", "result": "about 20%"},
      {"measurement": "amount needed in vitro for effective signaling of cells", "setting": "cells", "result": "10 to 100", "unit": "nM"},
      {"measurement": "plasma level as % of maximal concentration", "setting": "[1]; 2 hours post-dose", "result": "~7", "unit": "%"},
      {"measurement": "plasma level as % of maximal concentration", "setting": "[1]; 10 hours post-dose", "result": "~1", "unit": "%"},
      {"measurement": "well-tolerated doses", "setting": "[1]; Phase I study", "result": "up to 1 mg/kg"},
      {"measurement": "ablation of CD3+ΔCD19+ cells", "setting": "CD3+ΔCD19+ cells; patients with grade I/II aGVHD, 0.4 mg/kg 2 h infusion, within 30 minutes of infusion", "result": "> 90", "unit": "%"},
      {"measurement": "time to resolution of skin and liver aGvHD", "setting": "CD3+ΔCD19+ cells; two patients", "result": "≤ 24", "unit": "h"},
      {"measurement": "further change of CD3+ΔCD19+ cells", "setting": "CD3+ΔCD19+ cells; within 24 hours", "result": "further log reduction"},
      {"measurement": "dose sufficient to eliminate most modified T cells in vivo", "setting": "human CD3+CD19+ T cells", "result": 0.5, "unit": "mg/kg"}
    ]},
    {"molecule": "CO[C@@H]1C[C@H](C[C@@H](C)[C@@H]2CC(=O)[C@H](C)/C=C(\\C)[C@@H](O)[C@@H](OC)C(=O)[C@H](C)C[C@H](C)/C=C/C=C/C=C(\\C)[C@H](OC(C)C)C[C@@H]3CC[C@@H](C)[C@@](O)(O3)C(=O)C(=O)N3CCCC[C@H]3C(=O)O2)CC[C@H]1O", "note": "[R-Isopropoxyrapamycin]", "values": [
      {"measurement": "EC50", "setting": "[2]", "result": "~300", "unit": "nM"},
      {"measurement": "EC50", "setting": "FRB-PLF", "result": "~8.5", "unit": "nM"}
    ]},
    {"molecule": "S-Butanesulfonamidorap", "values": [
      {"measurement": "EC50", "setting": "FRB-KTF", "result": "> 200", "unit": "nM"}
    ]},
    {"molecule": "B1", "values": [
      {"measurement": "killing of target T cells within 10 days, in words", "setting": "primary T cells", "result": "indistinguishable from wild type Caspase-9 polypeptide or D330A"}
    ]}
  ]
}
